Laboratory results: ChEMBL document CHEMBL1201862, “PubChem BioAssay data set” (2004)
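96-well plates; 48 h exposure; 5 concentrations. Endpoints by linear interpolation between flanking doses. Not reached: highest tested concentration assigned. Here, GI50 denotes the concentration required for 50% inhibition of growth.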 The source made the active and inactive calls. Rule as the data show it: active = GI50 up to about 1.1 µM and inactive = higher.

Experiments:
Test in all cases: NCI anticancer screen, dose series, 48 h
HOP-18 = test system: HOP-18
DMS-114 = test system: DMS-114
DMS-273 = test system: DMS-273
M19-MEL = test system: M19-MEL
LXFL 529 = test system: LXFL 529
XF498 = test system: XF498
KM-20L2 = test system: KM-20L2
SNB-78 = test system: SNB-78
RXF 631 = test system: RXF 631

Structure (SMILES) | GI50 (HOP-18) | GI50 (DMS-114) | GI50 (DMS-273) | GI50 (M19-MEL) | GI50 (LXFL 529) | GI50 (XF498) | GI50 (KM-20L2) | GI50 (SNB-78) | GI50 (RXF 631)
CCN(CC)Cc1c(/C=C\c2cc(OC)c(OC)c(OC)c2)ccc(OC)c1O | > 100 µM (inactive) | 2.23 µM (inactive) | 2.2 µM (inactive) | 3.22 µM (inactive) | 5.53 µM (inactive) | 4.08 µM (inactive) | 3.52 µM (inactive) | 4.17 µM (inactive) | –
COC(=O)CCC(=O)N1Cc2cc(C)ccc2N(C(=O)CCC(=O)OC)Cc2cc(C)ccc21 | > 100 µM (inactive) | – | > 100 µM (inactive) | > 100 µM (inactive) | – | > 100 µM (inactive) | – | > 100 µM (inactive) | –
Fc1cccc(C2SCc3nc4ccccc4n32)c1 (centres undefined) | – | 26.3 µM (inactive) | 26.6 µM (inactive) | 51.4 µM (inactive) | 25.2 µM (inactive) | – | – | 30.6 µM (inactive) | 32.7 µM (inactive)
Cc1ccc2sc3cc(=O)cc(C)c-3nc2c1 | > 100 µM (inactive) | 19.6 µM (inactive) | 43.3 µM (inactive) | 16 µM (inactive) | 28 µM (inactive) | – | > 100 µM (inactive) | > 100 µM (inactive) | 54.1 µM (inactive)
Cc1[nH]c2ccccc2c1/C=C/c1c(C)[nH]c2ccccc12 | – | > 100 µM (inactive) | > 100 µM (inactive) | > 100 µM (inactive) | > 100 µM (inactive) | > 100 µM (inactive) | > 100 µM (inactive) | > 100 µM (inactive) | –
CCOC(=O)C(C)Sc1nnc(COc2ccc(Cl)cc2)n1-c1ccccc1 (centres undefined) | 49 µM (inactive) | – | 16.4 µM (inactive) | 19.1 µM (inactive) | 16.4 µM (inactive) | – | 18.5 µM (inactive) | 26.1 µM (inactive) | –
CN[C@@H]1C[C@H]2O[C@@](C)([C@@H]1OC)n1c3ccccc3c3c4c(c5c6ccccc6n2c5c31)C(=O)N[C@@H]4O | 0.01 µM (active) | 0.104 µM (active) | 0.0352 µM (active) | 0.135 µM (active) | 0.119 µM (active) | 0.0356 µM (active) | 0.104 µM (active) | 0.0344 µM (active) | –
N#C/C(=C1\OC(=O)C(c2ccc(Br)cc2)=C1O)c1ccc(Br)cc1 | 13.5 µM (inactive) | 12.8 µM (inactive) | 21.3 µM (inactive) | 14.6 µM (inactive) | 10.2 µM (inactive) | 12.9 µM (inactive) | 17.5 µM (inactive) | 12.3 µM (inactive) | 15.4 µM (inactive)
CCCCC(=O)OC[n+]1ccc2c(C)c3[nH]c4ccc(OC)cc4c3c(C)c2c1 | – | 0.705 µM (active) | 0.103 µM (active) | 0.684 µM (active) | 0.619 µM (active) | – | 0.377 µM (active) | 1.18 µM (inactive) | 0.345 µM (active)
O=Cc1ccc2c(c1I)OCO2 | > 100 µM (inactive) | – | > 100 µM (inactive) | > 100 µM (inactive) | – | – | > 100 µM (inactive) | > 100 µM (inactive) | –
Cc1cc(Cl)ccc1C1OC(=O)c2c1ccc1ccccc21 (centres undefined) | – | – | > 100 µM (inactive) | > 100 µM (inactive) | 74.1 µM (inactive) | > 100 µM (inactive) | > 100 µM (inactive) | – | –
Cc1ccc(S(=O)(=O)N/N=C/C(C)C)cc1 | > 100 µM (inactive) | > 100 µM (inactive) | > 100 µM (inactive) | > 100 µM (inactive) | > 100 µM (inactive) | – | > 100 µM (inactive) | > 100 µM (inactive) | > 100 µM (inactive)
Cc1cccc(-c2nc3c(C(=O)NCCN(C)C)cccc3[nH]2)c1 | 0.605 µM (active) | 1.24 µM (inactive) | 0.411 µM (active) | 1.67 µM (inactive) | – | – | – | 3.49 µM (inactive) | 0.394 µM (active)
COc1ccc(CN2CCC/C=C/CC(Cl)(Cl)C2=O)cc1 | 56.6 µM (inactive) | 24.7 µM (inactive) | 38.8 µM (inactive) | 29.2 µM (inactive) | 31.4 µM (inactive) | – | 49.4 µM (inactive) | – | –
COc1ccc(-c2cc(C(=O)Nc3cc(C(F)(F)F)cc(C(F)(F)F)c3)c3ccccc3n2)cc1 | 17.7 µM (inactive) | 6.56 µM (inactive) | 8.36 µM (inactive) | 17.2 µM (inactive) | 8.83 µM (inactive) | 7.31 µM (inactive) | 7.08 µM (inactive) | 19.5 µM (inactive) | –
COc1cc2c(c(OC)c1OC)CCNC2C1=C(O)COC1=O (centres undefined) | 95.5 µM (inactive) | > 100 µM (inactive) | > 100 µM (inactive) | > 100 µM (inactive) | > 100 µM (inactive) | – | > 100 µM (inactive) | > 100 µM (inactive) | > 100 µM (inactive)
Nc1c(-c2cn(Cc3ccccc3)c3ccccc23)[n+]([O-])c2ccccc2[n+]1[O-] | – | 16.7 µM (inactive) | 23.8 µM (inactive) | 38.9 µM (inactive) | 23.9 µM (inactive) | 12.6 µM (inactive) | 34.6 µM (inactive) | 53.8 µM (inactive) | –
CCOC(=O)Cn1c(=O)[nH]c(=O)c2[nH]cnc21 | > 100 µM (inactive) | > 100 µM (inactive) | > 100 µM (inactive) | > 100 µM (inactive) | > 100 µM (inactive) | – | > 100 µM (inactive) | > 100 µM (inactive) | > 100 µM (inactive)
Nc1nc(S)nc(C(=O)Nc2nccs2)c1-c1ccccc1 | > 100 µM (inactive) | > 100 µM (inactive) | > 100 µM (inactive) | > 100 µM (inactive) | > 100 µM (inactive) | > 100 µM (inactive) | > 100 µM (inactive) | > 100 µM (inactive) | –
C=CSCCC(N)C(=O)O (centres undefined) | > 100 µM (inactive) | > 100 µM (inactive) | > 100 µM (inactive) | > 100 µM (inactive) | > 100 µM (inactive) | > 100 µM (inactive) | > 100 µM (inactive) | > 100 µM (inactive) | > 100 µM (inactive)
C=CC(=O)c1ccc2c(c1)OCCOCCOCCOCCOCCO2 | 16.1 µM (inactive) | 19.3 µM (inactive) | 15.7 µM (inactive) | 17.8 µM (inactive) | 16.9 µM (inactive) | 15.3 µM (inactive) | 30.2 µM (inactive) | 17.7 µM (inactive) | –
C/C(=C\CC[C@]1(C)OC(C)(C)OC1CC/C(C)=C/CO[Si](c1ccccc1)(c1ccccc1)C(C)(C)C)CC/C=C/CO[Si](C)(C)C(C)(C)C (some centres undefined) | – | > 100 µM (inactive) | > 100 µM (inactive) | > 100 µM (inactive) | – | – | > 100 µM (inactive) | > 100 µM (inactive) | –
Cc1cc(Cl)ccc1NC(=O)C(=O)Cc1nc2ccccc2o1 | > 100 µM (inactive) | > 100 µM (inactive) | > 100 µM (inactive) | > 100 µM (inactive) | > 100 µM (inactive) | > 100 µM (inactive) | > 100 µM (inactive) | > 100 µM (inactive) | > 100 µM (inactive)
O=C1/C(=N\O)C2CCC1C2 (centres undefined) | > 100 µM (inactive) | > 100 µM (inactive) | > 100 µM (inactive) | > 100 µM (inactive) | > 100 µM (inactive) | – | > 100 µM (inactive) | > 100 µM (inactive) | –
COc1cc2c(oc(=O)c3c4oc([Si](C)(C)C)cc4cc(OC)c23)c2cccc(OCc3ccccc3)c12 | 28 µM (inactive) | 50.6 µM (inactive) | 25.3 µM (inactive) | 48.2 µM (inactive) | 27.2 µM (inactive) | 8.32 µM (inactive) | > 66.1 µM (inactive) | 17 µM (inactive) | –
c1cnc2c3[nH]cc4[nH]c5ccccc5c4c-3nc2c1 | – | > 100 µM (inactive) | 72.9 µM (inactive) | > 100 µM (inactive) | 68.1 µM (inactive) | > 100 µM (inactive) | 76.2 µM (inactive) | > 100 µM (inactive) | –
O=C1c2ccccc2C(=O)N1C/C=N/NS(=O)(=O)c1ccc(Br)cc1 | > 100 µM (inactive) | 51.6 µM (inactive) | > 100 µM (inactive) | > 100 µM (inactive) | > 100 µM (inactive) | > 100 µM (inactive) | > 100 µM (inactive) | > 100 µM (inactive) | > 100 µM (inactive)
COC(=O)CC(=O)OC1C[C@@H]2CCC3C(C)(C)CCC[C@]3(C)C23CC[C@@]1(C)C3 (some centres undefined) | – | 20.2 µM (inactive) | – | 19.1 µM (inactive) | – | 19 µM (inactive) | 20 µM (inactive) | 19.6 µM (inactive) | –
c1ccc(P(=C2c3ccccc3-c3ccccc32)(c2ccccc2)c2ccccc2)cc1 | 4.47 µM (inactive) | 2.79 µM (inactive) | 5.04 µM (inactive) | 4.94 µM (inactive) | 3.85 µM (inactive) | – | 2.56 µM (inactive) | – | 5.64 µM (inactive)
C=CCN(C)CN(C)c1nc(N(C)C)nc(N(C)C)n1 | > 100 µM (inactive) | 19.7 µM (inactive) | 22.3 µM (inactive) | > 100 µM (inactive) | 26.1 µM (inactive) | – | > 100 µM (inactive) | > 100 µM (inactive) | –
